According to US20250283049A1, “AGENT FOR CULTURING ORGANOID IN ABSENCE OF EXTRACELLULAR MATRIX” (KEIO UNIVERSITY, priority 2022, published 2025):

Columns and labels:
[1] = test system: human large intestine-derived organoids dissociated into single cells; experiment: Organoid formation from single cells (Examination 2); type: cell-based; conditions: absence of Matrigel, presence of TRULI 10 μM
Procedure: After dissociating human large intestine-derived organoids into single cells, organoid formation from the single cells was observed.
FIG. 27 is a graph showing the results of organoid formation from the single cells in the presence (+) or absence (−) of Matrigel (registered trademark) and in the absence (−) or presence (+, final concentration: 10 μM) of TRULI. […] In addition, the vertical axis of the graph represents the percentage (%) of cells that formed organoids among the seeded single cells.

[2] = test system: human large intestine-derived organoid; experiment: Culture of organoids in presence of Matrigel and LATS kinase inhibitor; cell number by ATP (CellTiter-Glo 3D); type: cell-based; conditions: presence of Matrigel; 10 mM Lats-IN as printed; 7 days of culture; vs control without Lats-IN
Procedure: A human small intestine-derived organoid and a human large intestine-derived organoid were cultured in the presence of an inhibitor of LATS1 kinase and LATS2 kinase, Lats-IN-1 (CAS No. 1424635-83-5, hereinafter sometimes referred to as “Lats-IN” and also referred to as “TRULI”), and their dynamics were observed.
The human small intestine-derived organoid and the human large intestine-derived organoid used were those established from tissues derived from patients with gastrointestinal tumors who provided informed consent, in accordance with an ethical research plan approved by the Ethics Committee of the Keio University School of Medicine.
Each organoid was dissociated into single cells using TrypLE Express (Thermo Fisher Scientific Inc.) to obtain a cell suspension. […]
The cell proliferation was measured by measuring adenosine triphosphate (ATP) using a commercially available kit (product name “CellTiter-Glo 3D,” Promega Corporation).
The lower left panel of FIG. 2 is a photograph of a control (Ctrl) human large intestine-derived organoid cultured in the absence of Lats-IN, and the lower center panel of FIG. 2 is a photograph of a human large intestine-derived organoid cultured in the presence of Lats-IN. […] The vertical axis of the graph represents luminescence intensity (relative value) indicating the amount of ATP present.

[3] = test system: crypts collected from the human colon; experiment: Organoid establishment from human colon crypts dissociated into single cells; cell number by ATP; type: cell-based; conditions: absence of Matrigel, presence of TRULI; compared with presence of Matrigel
Procedure: Crypts were collected from the human colon and dissociated into single cells, then cultured in the presence of Matrigel (registered trademark) or in the absence of Matrigel (registered trademark) and in the presence of TRULI to establish organoids. In addition, the cell number in each organoid under the given conditions was measured by measuring ATP using a commercially available kit (product name “CellTiter-Glo 3D,” Promega Corporation).
The upper panel of FIG. 30 is a schematic view explaining an overview of this experimental example. The lower panel of FIG. 30 is a graph showing the results of measuring the proliferation of the organoids.

[4] = test system: human liver cell organoids; experiment: Culturing liver cell organoids in absence of Matrigel; number of viable cells (CellTiter-Glo 3D); type: cell-based; conditions: concentration not given
Procedure: Human liver cell organoids, established from primary human liver cells, were supplemented with TrypLE Express (Thermo Fisher Scientific) and incubated at 37° C. for 5 minutes to dissociate them into single cells.
The cells were then collected and suspended in proliferation medium separately supplemented with 2, 5, 10, 20, or 50 μM TDI-011536 (CAS No. 2687970-96-1), and […] seeded into an ultra-low attachment 96-well plate at 2,000 cells/well. The preferred seeding density is 2,000 to 4,000 cells/well. In addition, cells in proliferation medium supplemented with no TDI-011536 were prepared as a control.
The proliferation medium was a medium consisting of a basal medium (Advanced DMEM/F-12 medium, 10 mM HEPES, 2 mM GlutaMAX, 100 U penicillin, 100 μg/mL streptomycin) supplemented with 10% afamin-Wnt-3A conditioned medium, 2% R-spondin 1 conditioned medium, 2% Noggin conditioned medium, and 20 ng/ml Oncostatin M.
On day 6 after seeding, the number of viable cells in the human liver cell organoids was measured using a commercially available kit (product name “CellTiter-Glo 3D,” Promega Corporation).

[5] = test system: immunodeficient mouse (NOG mouse) colon; experiment: Orthotopic xenotransplantation of organoids established in absence of Matrigel; type: in vivo; conditions: organoids established in absence of Matrigel and presence of TRULI, 1×10^7 cells
Excerpt: The human colon-derived organoids established in the absence of Matrigel (registered trademark) and in the presence of TRULI in Experimental Example 22 were orthotopically xenotransplanted into an immunodeficient mouse (NOG mouse) to examine whether they would engraft.
FIG. 31 is a schematic view explaining an overview of this experimental example. The human colon-derived organoids established in the absence of Matrigel (registered trademark) and in the presence of TRULI were electroporated with a green fluorescent protein (GFP) expression vector to obtain GFP-labeled human colon-derived organoids.
Subsequently, the GFP-labeled human colon-derived organoids were dissociated into single cells and then pre-cultured for 4 days in a medium supplemented with 2% Matrigel (registered trademark) or 2% collagen gel (50% type IA, 50% type IC). […]
Subsequently, the total cell number of the pre-cultured GFP-labeled human colon-derived organoids was counted, and the cells were suspended in Advanced DMEM/F12 medium supplemented with 10% (vol/vol) Matrigel (registered trademark) or type IA collagen. […]

## O=C(N=c1sccn1Cc1ccccc1)c1c[nH]c2ncccc12 [Lats-IN]
[1]
  organoid formation from single cells: proliferated from single cells and formed organoids
[2]
  cell proliferation (cell number per well, ATP luminescence): significantly activated
[3]
  cell proliferation (ATP) during organoid establishment: comparable to that observed in the presence of Matrigel
[4]
  increase in number of viable cells: about three-fold
[5]
  engraftment of human colon-derived organoids established with TRULI: could engraft
